Experimental data published in patent US7345080B2, “Substituted 4-pyrazolyl pyrazonlines used for pest control” (Bayer CropScience AG, priority 2002, dated 2008).

Tests used:
[1] = logP determination by HPLC (reversed-phase C 18), EEC Directive 79/831 Annex V.A8; assay type: physicochemical; details: acidic range, 0.1% aqueous phosphoric acid/acetonitrile; for chromatographic logP: reversed-phase C18 HPLC column, pH 2, reversed-phase C 18, 43° C.; for logP (pH 2): reversed-phase C 18, 43° C.
Method: The logP values given in the Tables and Preparation Examples above are determined in accordance with EEC Directive 79/831 Annex V.A8 by HPLC (High Performance Liquid Chromatography) using a reversed-phase column (C 18). Temperature: 43° C.
The determination is carried out in the acidic range at pH 2.3 using the-mobile phases 0.1% aqueous phosphoric acid and acetonitrile; linear gradient from 10% acetonitrile to 90% acetonitrile.

[2] = tested on: larvae of the mustard beetle (Phaedon cochleariae); test: Phaedon larvae test (dipped cabbage leaves); assay type: in vivo; details: 500 ppm active compound, kill after 7 d, cabbage leaves (Brassica oleracea)
Method: (§1) • Solvent: 7 parts by weight of dimethylformamide • Emulsifier: 2 parts by weight of alkylaryl polyglycol ether
(§2) To produce a suitable preparation of active compound, 1 part by weight of active compound is mixed with the stated amount of solvent and emulsifier, and the concentrate is diluted with emulsifier-containing water to the desired concentration.
After the desired period of time, the kill in % is determined. 100% means that all beetle larvae have been killed; 0% means that none of the beetle larvae have been killed.

[3] = tested on: caterpillars of the army worm (Spodoptera frugiperda); test: Spodoptera frugiperda test (dipped cabbage leaves); assay type: in vivo; details: for Efficacy in % after 7d: 500 ppm active compound, kill after 7 d, cabbage leaves (Brassica oleracea); for kill: active compound concentration of 500 ppm, after 7 days
Method: Spodoptera frugiperda Test
as §1, §2
Cabbage leaves (Brassica oleracea) are treated by being dipped into the preparation of active compound of the desired concentration and are populated with caterpillars of the army worm (Spodoptera frugiperda) while the leaves are still moist.
After the desired period of time, the kill in % is determined. 100% means that all caterpillars have been killed; 0% means that none of the caterpillars have been killed.

Row | chromatographic logP [1] | Compound | logP (pH 2) [1] | Efficacy in % after 7d [2] | Efficacy in % after 7d [3] | kill [3]
1 | 2.96 | CC(C)(C)n1nnc(-c2cnn(CC(=O)c3ccc(Cl)cc3)c2)n1 [2-[4-(2-tert-butyltetrazol-5-yl)pyrazol-1-yl]-4′-chloroacetophenone] | – | – | – | –
2 | 1.6 | O=C(Cn1cc(-c2nn[nH]n2)cn1)c1ccc(Cl)cc1 [2-[4-(tetrazol-5-yl)pyrazol-1-yl]-4′-chloroacetophenone] | – | – | – | –
3 | 2.91 | CC(C)(C)n1nnc(-c2cnn(C3CNN=C3c3ccc(Cl)cc3)c2)n1 (centres unmarked) [3-(4-chlorophenyl)-4-[4-(2-tert-butyltetrazol-5-yl)pyrazol-1-yl]4,5-dihydro-1H-pyrazole] | – | – | – | –
4 | – | CC(C)(C)n1nnc(-c2cnn(C3CN(C(=O)Nc4ccc(OC(F)(F)F)cc4)N=C3c3ccc(Cl)cc3)c2)n1 (centres unmarked) [Example 1, N-(4-trifluoromethoxy)-3-(4-chlorophenyl)-4-[4-(2-tert-butyltetrazol-5-yl)pyrazol-1-yl]-4,5-dihydro-1-pyrazolecarboxanilide] | 4.63 | – | – | –
5 | – | CC(C)(C)n1nnc(-c2cnn(C3CN(C(=O)N(CC#N)c4ccc(OC(F)(F)F)cc4)N=C3c3ccc(Cl)cc3)c2)n1 (centres unmarked) [Example 2, N-cyanomethyl-N(4-trifluoromethoxy)-3-(4-chlorophenyl)-4-[4-(2-tert-butyltetrazol-5-yl)pyrazol-1-yl]-4,5-dihydro-1-pyrazolecarboxanilide] | 4.40 | 100% | 100% | 100%
6 | 3.75 | Cn1nnc(-c2cnn(C3CN(C(=O)Nc4ccc(OC(F)(F)F)cc4)N=C3c3ccc(Cl)cc3)c2)n1 (centres unmarked) [Example 4] | – | – | 100% | 100%
7 | 3.51 | Cn1nnc(-c2cnn(C3CN(C(=O)N(CC#N)c4ccc(OC(F)(F)F)cc4)N=C3c3ccc(Cl)cc3)c2)n1 (centres unmarked) [Example 6] | – | 100% | 100% | –
